Reference: ChEMBL document CHEMBL1212811, “Chemical phylogenetics of histone deacetylases” (Nat Chem Biol, 2010)
Structures can show the parent of a compound that is named as a salt. Activity calls are given as the source filed them. The calls are words filed in the database; no cut-off is given here. Peptide text beside a SMILES is read from it. * marks the point of attachment. AMC = Cc1cc(=O)oc2cc(N*)ccc12; Tfa = O=C(C(F)(F)F)*

Experiments:
[1] = target: Histone deacetylase 9 (Homo sapiens) (UniProt Q9UKV0); test: Activity of HDAC9 at 10 uM
[2] = target: T1, Histone deacetylase 7 (Homo sapiens) (UniProt Q8WUI4); test: Activity of HDAC7 at 10 uM
T1 sequence (whole entry): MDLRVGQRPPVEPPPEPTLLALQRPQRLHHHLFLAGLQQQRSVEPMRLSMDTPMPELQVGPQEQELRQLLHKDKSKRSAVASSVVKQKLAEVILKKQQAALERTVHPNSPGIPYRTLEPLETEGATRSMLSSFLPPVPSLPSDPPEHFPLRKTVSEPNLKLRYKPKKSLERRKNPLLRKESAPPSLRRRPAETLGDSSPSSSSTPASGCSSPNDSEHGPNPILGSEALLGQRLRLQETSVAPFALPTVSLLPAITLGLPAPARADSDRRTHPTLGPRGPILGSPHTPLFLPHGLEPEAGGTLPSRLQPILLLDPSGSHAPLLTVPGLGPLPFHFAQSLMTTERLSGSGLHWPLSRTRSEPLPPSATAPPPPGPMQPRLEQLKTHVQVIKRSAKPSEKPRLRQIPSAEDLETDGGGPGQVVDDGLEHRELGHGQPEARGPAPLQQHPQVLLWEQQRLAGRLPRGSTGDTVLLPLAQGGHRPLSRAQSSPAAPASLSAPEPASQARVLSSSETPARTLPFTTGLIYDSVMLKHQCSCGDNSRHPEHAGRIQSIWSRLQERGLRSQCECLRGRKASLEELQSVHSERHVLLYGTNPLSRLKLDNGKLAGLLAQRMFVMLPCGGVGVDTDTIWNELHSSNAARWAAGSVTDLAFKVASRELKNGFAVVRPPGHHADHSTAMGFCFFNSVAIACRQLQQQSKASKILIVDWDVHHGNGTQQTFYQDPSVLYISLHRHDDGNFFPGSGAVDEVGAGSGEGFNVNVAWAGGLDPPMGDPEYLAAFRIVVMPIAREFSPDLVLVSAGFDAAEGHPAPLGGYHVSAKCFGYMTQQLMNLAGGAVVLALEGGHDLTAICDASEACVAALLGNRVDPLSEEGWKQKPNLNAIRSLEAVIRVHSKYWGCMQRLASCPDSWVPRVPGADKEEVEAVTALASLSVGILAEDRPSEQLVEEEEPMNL

[3] = target: T2, Histone deacetylase 8 (Homo sapiens) (UniProt Q9BY41); test: Activity of HDAC8 at 10 uM
T2 sequence (whole entry): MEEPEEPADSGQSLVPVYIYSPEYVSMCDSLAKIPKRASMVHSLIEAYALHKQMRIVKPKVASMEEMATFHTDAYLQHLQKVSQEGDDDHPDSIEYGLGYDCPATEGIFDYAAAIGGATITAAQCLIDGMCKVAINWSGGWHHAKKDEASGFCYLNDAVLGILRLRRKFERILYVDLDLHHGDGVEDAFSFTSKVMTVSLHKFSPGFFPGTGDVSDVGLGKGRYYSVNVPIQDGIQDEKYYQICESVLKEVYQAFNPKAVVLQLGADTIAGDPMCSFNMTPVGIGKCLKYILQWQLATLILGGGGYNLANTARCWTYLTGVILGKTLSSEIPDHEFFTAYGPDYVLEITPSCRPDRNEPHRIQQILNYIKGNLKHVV

[4] = target: Histone deacetylase 4 (Homo sapiens) (UniProt P56524); test: Activity of HDAC4 at 10 uM
[5] = target: Histone deacetylase 5 (Homo sapiens) (UniProt Q9UQL6); test: Activity of HDAC5 at 10 uM
[6] = target: T3, Protein deacetylase HDAC6 (Homo sapiens) (UniProt Q9UBN7); test: Inhibition of HDAC6 in human Jurkat cells assessed as hyperacetylation of alpha-tubulin after 24 hrs by immunoblot method; type: cell-based
T3 sequence (whole entry): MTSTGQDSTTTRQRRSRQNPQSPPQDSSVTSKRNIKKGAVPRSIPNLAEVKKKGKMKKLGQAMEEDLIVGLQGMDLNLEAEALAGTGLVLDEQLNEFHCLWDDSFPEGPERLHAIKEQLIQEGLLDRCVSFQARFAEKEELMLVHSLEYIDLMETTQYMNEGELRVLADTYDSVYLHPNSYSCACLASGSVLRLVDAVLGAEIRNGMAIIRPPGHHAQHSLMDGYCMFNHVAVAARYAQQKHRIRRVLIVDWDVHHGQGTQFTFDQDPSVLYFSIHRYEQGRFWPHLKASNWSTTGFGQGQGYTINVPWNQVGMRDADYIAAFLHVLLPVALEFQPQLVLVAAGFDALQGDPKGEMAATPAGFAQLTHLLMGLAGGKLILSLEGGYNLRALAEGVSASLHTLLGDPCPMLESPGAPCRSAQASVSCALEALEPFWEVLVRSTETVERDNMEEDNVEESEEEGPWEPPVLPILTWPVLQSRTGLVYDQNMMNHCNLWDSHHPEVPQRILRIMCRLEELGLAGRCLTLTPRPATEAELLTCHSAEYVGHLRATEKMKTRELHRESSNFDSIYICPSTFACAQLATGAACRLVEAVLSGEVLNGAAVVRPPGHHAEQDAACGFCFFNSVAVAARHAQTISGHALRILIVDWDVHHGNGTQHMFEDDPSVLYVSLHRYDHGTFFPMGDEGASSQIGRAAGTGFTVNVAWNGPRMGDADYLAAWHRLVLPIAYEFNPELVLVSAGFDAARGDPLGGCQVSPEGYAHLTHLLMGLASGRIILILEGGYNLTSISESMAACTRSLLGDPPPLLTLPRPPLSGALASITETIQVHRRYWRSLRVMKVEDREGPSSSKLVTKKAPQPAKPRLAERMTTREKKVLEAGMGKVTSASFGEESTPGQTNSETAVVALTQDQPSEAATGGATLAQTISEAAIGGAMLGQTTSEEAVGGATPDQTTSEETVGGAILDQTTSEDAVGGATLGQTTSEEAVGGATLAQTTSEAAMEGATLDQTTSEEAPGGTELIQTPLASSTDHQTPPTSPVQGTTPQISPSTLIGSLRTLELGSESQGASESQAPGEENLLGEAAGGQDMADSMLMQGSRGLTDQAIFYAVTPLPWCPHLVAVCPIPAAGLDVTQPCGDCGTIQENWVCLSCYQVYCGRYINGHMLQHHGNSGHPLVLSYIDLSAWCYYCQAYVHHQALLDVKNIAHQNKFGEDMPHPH

Sequence of Histone deacetylase 5 (Homo sapiens) (Q9UQL6 whole entry): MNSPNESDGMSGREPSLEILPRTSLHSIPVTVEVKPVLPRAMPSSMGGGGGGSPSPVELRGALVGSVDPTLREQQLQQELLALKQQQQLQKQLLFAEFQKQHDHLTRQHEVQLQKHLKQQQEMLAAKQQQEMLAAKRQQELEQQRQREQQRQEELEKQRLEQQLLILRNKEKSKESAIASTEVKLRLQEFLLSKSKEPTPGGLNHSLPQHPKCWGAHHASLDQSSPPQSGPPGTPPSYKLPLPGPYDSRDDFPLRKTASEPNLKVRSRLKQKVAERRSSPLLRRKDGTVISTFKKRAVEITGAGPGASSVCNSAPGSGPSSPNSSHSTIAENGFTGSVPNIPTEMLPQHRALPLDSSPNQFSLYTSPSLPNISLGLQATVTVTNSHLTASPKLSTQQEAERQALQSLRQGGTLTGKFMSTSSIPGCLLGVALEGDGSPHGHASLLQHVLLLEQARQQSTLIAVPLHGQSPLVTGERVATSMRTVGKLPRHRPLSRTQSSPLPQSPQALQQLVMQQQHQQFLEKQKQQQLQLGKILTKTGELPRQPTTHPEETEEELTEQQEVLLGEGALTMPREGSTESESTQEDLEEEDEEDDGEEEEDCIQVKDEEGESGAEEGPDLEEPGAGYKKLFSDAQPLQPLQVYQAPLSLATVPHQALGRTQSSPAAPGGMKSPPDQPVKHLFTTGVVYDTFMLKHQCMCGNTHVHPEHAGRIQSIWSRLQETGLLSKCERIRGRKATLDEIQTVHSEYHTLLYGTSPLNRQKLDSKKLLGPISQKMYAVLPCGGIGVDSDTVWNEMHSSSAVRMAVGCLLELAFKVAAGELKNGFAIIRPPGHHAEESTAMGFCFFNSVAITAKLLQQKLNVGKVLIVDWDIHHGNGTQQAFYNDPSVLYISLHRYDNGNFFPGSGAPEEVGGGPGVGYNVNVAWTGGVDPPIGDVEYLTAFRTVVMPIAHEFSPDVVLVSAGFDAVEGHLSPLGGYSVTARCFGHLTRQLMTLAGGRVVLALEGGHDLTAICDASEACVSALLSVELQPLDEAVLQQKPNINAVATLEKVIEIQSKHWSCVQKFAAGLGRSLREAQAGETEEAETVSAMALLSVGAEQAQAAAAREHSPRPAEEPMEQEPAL
Sequence of Histone deacetylase 9 (Homo sapiens) (Q9UKV0 whole entry): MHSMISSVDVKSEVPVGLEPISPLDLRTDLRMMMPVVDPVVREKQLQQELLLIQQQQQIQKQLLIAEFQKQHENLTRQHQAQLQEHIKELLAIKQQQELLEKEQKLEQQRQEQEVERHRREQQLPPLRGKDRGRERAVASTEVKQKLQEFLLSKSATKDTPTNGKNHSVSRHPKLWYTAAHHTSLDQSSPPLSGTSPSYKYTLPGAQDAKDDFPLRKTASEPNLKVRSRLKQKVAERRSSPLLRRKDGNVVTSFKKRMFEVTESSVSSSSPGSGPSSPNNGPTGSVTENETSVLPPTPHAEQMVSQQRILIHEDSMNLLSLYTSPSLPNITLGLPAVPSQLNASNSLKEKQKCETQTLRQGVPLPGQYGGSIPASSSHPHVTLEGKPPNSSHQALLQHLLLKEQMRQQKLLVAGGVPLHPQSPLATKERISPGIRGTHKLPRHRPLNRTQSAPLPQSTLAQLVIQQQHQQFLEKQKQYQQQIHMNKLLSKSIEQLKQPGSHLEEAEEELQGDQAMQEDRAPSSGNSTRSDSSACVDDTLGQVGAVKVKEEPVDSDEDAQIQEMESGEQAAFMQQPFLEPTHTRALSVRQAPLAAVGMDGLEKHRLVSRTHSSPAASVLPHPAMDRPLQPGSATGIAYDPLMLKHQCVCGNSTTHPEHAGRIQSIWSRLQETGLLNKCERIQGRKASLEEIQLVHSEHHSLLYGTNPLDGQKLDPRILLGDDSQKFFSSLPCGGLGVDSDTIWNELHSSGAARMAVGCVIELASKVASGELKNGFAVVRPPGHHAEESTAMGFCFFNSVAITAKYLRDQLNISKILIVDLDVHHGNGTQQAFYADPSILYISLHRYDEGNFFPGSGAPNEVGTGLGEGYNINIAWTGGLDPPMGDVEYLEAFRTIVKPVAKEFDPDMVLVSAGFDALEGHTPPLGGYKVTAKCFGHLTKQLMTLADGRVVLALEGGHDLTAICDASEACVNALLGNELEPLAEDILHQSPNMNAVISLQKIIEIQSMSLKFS
Sequence of Histone deacetylase 4 (Homo sapiens) (P56524 whole entry): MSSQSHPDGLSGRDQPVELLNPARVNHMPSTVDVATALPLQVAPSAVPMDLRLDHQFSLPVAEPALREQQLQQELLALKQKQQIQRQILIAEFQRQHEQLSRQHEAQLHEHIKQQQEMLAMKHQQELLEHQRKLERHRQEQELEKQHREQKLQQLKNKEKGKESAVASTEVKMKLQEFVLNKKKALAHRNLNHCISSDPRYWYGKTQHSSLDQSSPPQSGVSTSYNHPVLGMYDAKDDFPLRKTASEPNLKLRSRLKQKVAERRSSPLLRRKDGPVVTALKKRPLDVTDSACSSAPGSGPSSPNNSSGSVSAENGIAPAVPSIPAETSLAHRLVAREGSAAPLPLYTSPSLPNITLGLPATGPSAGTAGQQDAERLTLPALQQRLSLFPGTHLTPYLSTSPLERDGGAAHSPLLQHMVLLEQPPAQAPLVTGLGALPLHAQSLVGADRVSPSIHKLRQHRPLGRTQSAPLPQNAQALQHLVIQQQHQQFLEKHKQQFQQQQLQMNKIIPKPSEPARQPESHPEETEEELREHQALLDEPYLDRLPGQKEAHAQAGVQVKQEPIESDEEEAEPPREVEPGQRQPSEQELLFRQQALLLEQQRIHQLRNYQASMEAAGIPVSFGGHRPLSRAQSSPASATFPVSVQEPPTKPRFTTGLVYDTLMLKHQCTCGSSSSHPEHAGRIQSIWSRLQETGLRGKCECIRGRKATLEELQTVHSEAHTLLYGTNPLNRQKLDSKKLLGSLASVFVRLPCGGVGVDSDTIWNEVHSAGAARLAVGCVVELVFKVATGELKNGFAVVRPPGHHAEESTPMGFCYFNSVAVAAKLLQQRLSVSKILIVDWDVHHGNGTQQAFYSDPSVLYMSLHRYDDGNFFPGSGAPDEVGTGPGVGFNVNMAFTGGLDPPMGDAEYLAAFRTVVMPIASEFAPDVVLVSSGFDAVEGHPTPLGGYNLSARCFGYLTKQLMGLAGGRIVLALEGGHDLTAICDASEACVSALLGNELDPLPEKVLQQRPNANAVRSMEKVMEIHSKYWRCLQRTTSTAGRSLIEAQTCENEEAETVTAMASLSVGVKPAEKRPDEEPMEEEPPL

Activity [1] | Activity [2] | Activity [3] | Activity [4] | Activity [5] | Compound | inhibition [6]
Active | Active | Active | Active | Active | CC(=O)N[C@@H](CC(C)C)C(=O)NCC(=O)N[C@@H](CCCCNC(=O)C(F)(F)F)C(=O)Nc1ccc2c(C)cc(=O)oc2c1 (Ac-Leu-Gly-Lys(Tfa)-{AMC}) | 
 |  |  |  |  | O=C(/C=C/c1ccc(C(=O)N/N=C/c2ccc(O)c(O)c2O)cc1)NO | Dose-dependent effect
